Data from patent US9365508B2, “Aroyl thiourea derivatives” (University Court of the University of St Andrews, priority 2009, dated 2016).
Structures can show the parent of a compound that is named as a salt.

Columns and labels:
SIRT1 = SIRT1 (Homo sapiens (Human), UniProt Q96EB6); assay: SIRT1 inhibition assay (Fluor de Lys fluorescence-based assay kit); format: biochemical; settings: human recombinant enzyme; for inhibition at 60 µM: read-out: SirT1 (% inhib at 60 μM)
Procedure: (§1) SIRT1 and SIRT2 Inhibition Assays
(§2) All compounds were tested for inhibition of SIRT1 and SIRT2 using human recombinant enzymes available in the Fluor de Lys fluorescence-based assay kit (BIOMOL, AK555, AK556). All other required reagents were provided in the kit which was stored at −78° C. Before use, small aliquots of each enzyme (2-3 μL) were prepared, snap frozen in liquid nitrogen and stored at −78° C. Fresh dilutions of compounds were prepared in DMSO and further diluted in assay buffer. NAD^+ (12.5 […] at 4 mM) and Fluor de Lys SIRT1 or SIRT2 (12.5 μL at 100 μM) in assay buffer were added to a white 96 well plate, followed by compound (10 μL) and lastly enzyme (15 μL, 0.07 U/μL or SIRT1 and 0.3 U/μL for SIRT2). After incubation for 1 h at 37° C. a developer solution (50 μL) was added to each reaction. The developer solution contained 38 μL buffer, 10 μL developer and 2 μL nicotinamide (50 mM) per reaction. The plate was then incubated for 45 min at rt and then read using a Spectra Max Gemini fluorimeter with an excitation wavelength of 355 nm and an emission wavelength of 460 nm. SigmaPlot software was used to generate fit curves for raw plots and the equation for each curve was used to calculate IC50 data.

SIRT2 = SIRT2 (Homo sapiens (Human), UniProt Q8IXJ6); assay: SIRT2 inhibition assay (Fluor de Lys fluorescence-based assay kit); format: biochemical; settings: human recombinant enzyme; for inhibition at 60 µM: read-out: SirT2 (% inhib at 60 μM)
Sequence of SIRT2 (Q8IXJ6 whole entry): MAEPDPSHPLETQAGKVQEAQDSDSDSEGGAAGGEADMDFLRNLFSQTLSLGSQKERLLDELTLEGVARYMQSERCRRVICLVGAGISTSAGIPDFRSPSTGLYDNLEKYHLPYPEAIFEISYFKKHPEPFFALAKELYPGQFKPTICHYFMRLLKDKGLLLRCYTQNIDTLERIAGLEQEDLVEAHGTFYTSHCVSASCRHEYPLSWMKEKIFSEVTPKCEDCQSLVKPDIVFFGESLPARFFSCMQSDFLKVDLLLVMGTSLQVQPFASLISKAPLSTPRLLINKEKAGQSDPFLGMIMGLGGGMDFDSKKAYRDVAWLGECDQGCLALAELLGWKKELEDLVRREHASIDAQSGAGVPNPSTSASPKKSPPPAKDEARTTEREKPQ
Procedure: as §1, §2

Sequence of SIRT1 (Q96EB6 whole entry): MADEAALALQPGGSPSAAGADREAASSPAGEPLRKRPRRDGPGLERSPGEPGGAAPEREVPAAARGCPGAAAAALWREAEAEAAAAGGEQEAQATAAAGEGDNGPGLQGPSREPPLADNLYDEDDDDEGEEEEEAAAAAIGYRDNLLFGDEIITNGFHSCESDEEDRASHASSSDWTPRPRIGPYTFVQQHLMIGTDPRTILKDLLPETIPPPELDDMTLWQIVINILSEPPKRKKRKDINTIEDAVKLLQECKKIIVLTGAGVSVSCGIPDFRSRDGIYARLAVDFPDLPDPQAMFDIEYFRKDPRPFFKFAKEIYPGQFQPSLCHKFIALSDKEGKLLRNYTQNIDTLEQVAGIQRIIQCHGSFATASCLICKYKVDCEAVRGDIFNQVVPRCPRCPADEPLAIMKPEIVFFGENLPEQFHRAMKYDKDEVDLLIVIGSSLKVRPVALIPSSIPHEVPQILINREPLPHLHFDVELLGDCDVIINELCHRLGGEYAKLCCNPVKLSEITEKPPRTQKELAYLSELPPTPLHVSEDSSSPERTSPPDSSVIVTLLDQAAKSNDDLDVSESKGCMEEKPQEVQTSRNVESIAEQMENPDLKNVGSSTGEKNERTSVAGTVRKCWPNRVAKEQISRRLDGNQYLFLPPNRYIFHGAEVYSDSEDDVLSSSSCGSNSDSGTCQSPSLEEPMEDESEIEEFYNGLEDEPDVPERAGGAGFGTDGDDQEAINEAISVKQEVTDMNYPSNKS

SMILES	inhibition at 60 µM (SIRT1; 60 μM compound) [%]	inhibition at 60 µM (SIRT2; 60 μM compound) [%]	IC50 (SIRT1) [µM]	IC50 (SIRT2) [µM]	SirT1 (% inhib at 60 μM) (SIRT1; 60 μM compound) [%]	SirT2 (% inhib at 60 μM) (SIRT2; 60 μM compound) [%]
CN(C)CCCCC(=O)Nc1ccc(NC(=S)NC(=O)c2ccc(Cl)cc2)cc1 [318a A1, 5-Dimethylamino-pentanoic acid {4-[3-(4-chloro-benzoyl)-thioureido]-phenyl}-amide hydrochloride]	53	61				
Cc1ccc(C(=O)NC(=S)Nc2ccc(NC(=O)CCCCN(C)C)cc2)cc1 [318a A2, 5-Dimethylamino-pentanoic acid {4-[3-(4-methyl-benzoyl)-thioureido]-phenyl}-amide hydrochloride]	47	40				
COc1ccc(C(=O)NC(=S)Nc2ccc(NC(=O)CCCCN(C)C)cc2)cc1 [318a A3, 5-Dimethylamino-pentanoic acid {4-[3-(4-methoxy-benzoyl)-thioureido]-phenyl}-amide hydrochloride]	48	51				
CN(C)CCCCC(=O)Nc1ccc(NC(=S)NC(=O)c2ccc(Cl)c(Cl)c2)cc1 [Compound 311d, 5-Dimethylamino-pentanoic acid {4-[3-(3,4-dichloro-benzoyl)-thioureido]-phenyl}-amide hydrochloride]	8	68	70.9 ± 4.2	31.9 ± 6.4		
Cc1ccc(C(=O)NC(=S)Nc2ccc(NC(=O)CCCCN(C)C)cc2)cc1Br [Compound 330a, 5-Dimethylamino-pentanoic acid {4-[3-(3-bromo-4-methyl-benzoyl)-thioureido]-phenyl}-amide hydrochloride]	33	80.2	43.9 ± 7.3	31.9 ± 1.6		
CC(C)c1ccc(C(=O)NC(=S)Nc2ccc(NC(=O)CCCCN(C)C)cc2)cc1 [Compound 331a, 5-Dimethylamino-pentanoic acid {4-[3-(4-isopropyl-benzoyl)-thioureido]-phenyl}-amide hydrochloride]	52.9	78.4	64.8 ± 3.8	32.5 ± 0.07		
CN(C)CCCCC(=O)Nc1ccc(NC(=S)NC(=O)c2ccc(N(C)C)cc2)cc1 [Compound 332a, 5-Dimethylamino-pentanoic acid {4-[3-(4-dimethylamino-benzoyl)-thioureido]-phenyl}-amide hydrochloride]	55.7	61.5				
CCCCCc1ccc(C(=O)NC(=S)Nc2ccc(NC(=O)CCCCN(C)C)cc2)cc1 [Compound 345a, 5-Dimethylamino-pentanoic acid {4-[3-(4-pentyl-benzoyl)-thioureido]-phenyl}-amide hydrochloride]	73	85.4				
CCCCc1ccc(C(=O)NC(=S)Nc2ccc(NC(=O)CCCCN(C)C)cc2)cc1 [Compound 345b, 5-Dimethylamino-pentanoic acid {4-[3-(4-butyl-benzoyl)-thioureido]-phenyl}-amide hydrochloride]	56.3	90				
CCCc1ccc(C(=O)NC(=S)Nc2ccc(NC(=O)CCCCN(C)C)cc2)cc1 [Compound 345c, 5-Dimethylamino-pentanoic acid {4-[3-(4-propyl-benzoyl)-thioureido]-phenyl}-amide hydrochloride]	82.4	89				
CCc1ccc(C(=O)NC(=S)Nc2ccc(NC(=O)CCCCN(C)C)cc2)cc1 [Compound 345d, 5-Dimethylamino-pentanoic acid {4-[3-(4-ethyl-benzoyl)-thioureido]-phenyl}-amide hydrochloride]	9.1	57.1				
COc1ccc(C(=O)NC(=S)Nc2ccc(NC(=O)CCCCN(C)C)cc2)cc1Cl [Compound 350a, 5-Dimethylamino-pentanoic acid {4-[3-(3-chloro-4-methoxy-benzoyl)-thioureido]-phenyl}-amide hydrochloride]	9	37.8				
CN(C)CCCCC(=O)Nc1ccc(NC(=S)NC(=O)c2cc(Cl)cc(Cl)c2)cc1 [Compound 360a, 5-Dimethylamino-pentanoic acid {4-[3-(3,5-dichloro-benzoyl)-thioureido]-phenyl}-amide hydrochloride]	23.3	49.9				
CN(C)CCCCC(=O)Nc1ccc(NC(=S)NC(=O)c2ccc(C(C)(C)C)c(Br)c2)cc1 [Compound 361a, 5-Dimethylamino-pentanoic acid {4-[3-(3-bromo-4-tert-butyl-benzoyl)-thioureido]-phenyl}-amide hydrochloride]	93.5	91.1	18.3 ± 0.3	4.6 ± 0.6		
COc1c(Br)cc(C(=O)NC(=S)Nc2ccc(NC(=O)CCCCN(C)C)cc2)cc1Br [Compound 383a, 5-Dimethylamino-pentanoic acid {4-[3-(3,5-dibromo-4-methoxy-benzoyl)-thioureido]-phenyl}-amide hydrochloride]			47.2 ± 0.9	14 ± 1.7		
CCOc1c(Cl)cc(C(=O)NC(=S)Nc2ccc(NC(=O)CCCCN(C)C)cc2)cc1Cl [Compound 391a, 5-Dimethylamino-pentanoic acid {4-[3-(3,5-dichloro-4-ethoxy-benzoyl)-thioureido]-phenyl}-amide hydrochloride]	81.5	87.9	29.3 ± 3.6	3 ± 0.1		
CCCCOc1c(Cl)cc(C(=O)NC(=S)Nc2ccc(NC(=O)CCCCN(C)C)cc2)cc1Cl [Compound 392a, 5-Dimethylamino-pentanoic acid {4-[3-(4-butoxy-3,5-dichloro-benzoyl)-thioureido]-phenyl}-amide hydrochloride]	90.4	96.3	22.5 ± 1.3	0.4 ± 0.4		
Cc1ccccc1C(=O)NC(=S)Nc1ccc(NC(=O)CCCCN(C)C)cc1 [Compound A1, 5-Dimethylamino-pentanoic acid {4-[3-(2-methyl-benzoyl)-thioureido]-phenyl}-amide hydrochloride]	10	48.5	> 90	80.7 ± 14.4		
CN(C)CCCCC(=O)Nc1ccc(NC(=S)NC(=O)c2ccccc2Cl)cc1 [Compound A2, 5-Dimethylamino-pentanoic acid {4-[3-(2-chloro-benzoyl)-thioureido]-phenyl}-amide hydrochloride]	29.3	54.3				
COc1ccccc1C(=O)NC(=S)Nc1ccc(NC(=O)CCCCN(C)C)cc1 [Compound A3, 5-Dimethylamino-pentanoic acid {4-[3-(2-methoxy-benzoyl)-thioureido]-phenyl}-amide hydrochloride]	48.7	66.8				
CN(C)CCCCC(=O)Nc1ccc(NC(=S)NC(=O)c2cccc(Cl)c2)cc1 [Compound A5, 5-Dimethylamino-pentanoic acid {4-[3-(3-chloro-benzoyl)-thioureido]-phenyl}-amide hydrochloride]	29.2	57.9				
CN(C)CCCCC(=O)Nc1ccc(NC(=S)NC(=O)c2cccc(Br)c2)cc1 [Compound A6, 5-Dimethylamino-pentanoic acid {4-[3-(3-bromo-benzoyl)-thioureido]-phenyl}-amide hydrochloride]	70.5	81	39.9 ± 8.1	21.2 ± 7.2		
Cc1cccc(C(=O)NC(=S)Nc2ccc(NC(=O)CCCCN(C)C)cc2)c1 [Compound B1, 5-Dimethylamino-pentanoic acid {4-[3-(3-methyl-benzoyl)-thioureido]-phenyl}-amide]	5	20.9				
COc1cccc(C(=O)NC(=S)Nc2ccc(NC(=O)CCCCN(C)C)cc2)c1 [Compound B2, 5-Dimethylamino-pentanoic acid {4-[3-(3-methoxy-benzoyl)-thioureido]-phenyl}-amide hydrochloride]	25.3	30.5				
CN(C)CCCCC(=O)Nc1ccc(NC(=S)NC(=O)c2ccccc2)cc1 [Compound B4, 5-Dimethylamino-pentanoic acid [4-(3-benzoyl-thioureido)-phenyl]-amide hydrochloride]	3.5	43.7				
CN(C)CCCCC(=O)Nc1ccc(NC(=S)NC(=O)c2ccc(Br)cc2)cc1 [Compound B5, 5-Dimethylamino-pentanoic acid {4-[3-(4-bromo-benzoyl)-thioureido]-phenyl}-amide hydrochloride]	13.5	47.7	62.1 ± 2.3	39.5 ± 9.7		
CN(C)CCCCC(=O)Nc1ccc(NC(=S)NC(=O)c2ccc(C(F)(F)F)cc2)cc1.Cl [Compound B6]					10.9	17.1
COc1cc(C(=O)NC(=S)Nc2ccc(NC(=O)CCCCN(C)C)cc2)cc(OC)c1OC [Compound D2, 5-Dimethylamino-pentanoic acid {4-[3-(3,4,5-trimethoxy-benzoyl)-thioureido]-phenyl}-amide hydrochloride]		18				
